From patent publication US20230399611A1, “PRODUCTION METHOD FOR STAGE 5 NEURONS” (Ricoh Company, Ltd., priority 2022, published 2023)

What was measured:
[1] = test system: human iPSC-derived neurons; assay: Population firing rate of iPSC-derived neurons on high-density microelectrode array (HD-MEA); assay type: cell-based; details: added at 8 weeks after initiation of culture with increasing concentration; 1,024 electrodes per well; 10-minute recording per concentration
Method: Electrophysiological responses of the human iPSC-derived neurons were analyzed by using a high-density microelectrode array system (HD-MEA, MaxWell Biosystems AG).
Human iPSC-derived neurons (product name “Quick-Neuron (trademark) Excitatory-Human iPSC-derived Neurons”, ELIXIRGEN SCIENTIFIC, INC.) were cultured in the same manner as in Experimental Example 1, except that the human iPSC-derived neurons were seeded on electrodes of the high-density microelectrode array (HD-MEA) at a cell density of 100,000 cells/well, and the local electric field potential was measured over time.
4-Aminopyridine (4-AP) serving as a potassium channel inhibitor and D-2-Amino-5-phosphonopentanoic acid (D-AP5) serving ax an NMDA receptor inhibitor were added in the culture medium of iPSC-derived neurons at 8 weeks after the initiation of culture while increasing each concentration, and population firing rate histograms were recorded with 1,024 electrodes per well. One-minute stabilization and 10-minute recording were performed for each concentration. Finally, the iPSC-derived neurons were washed with three medium replacements and left for one day, and it was confirmed that the effect of each drug had disappeared.

[2] = test system: Human iPSC-derived mature stage 5 neurons; assay: Localization change of drebrin by immunostaining after glutamic acid treatment; assay type: cell-based; details: 100 μM for 10 min; immunostaining of MAP2, drebrin, nuclei
Method: Human iPSC-derived mature stage 5 neurons were treated with 100 μM glutamic acid for 10 minutes and then immunostained to examine the localization change of drebrin. For comparison, a sample immunostained without glutamic acid treatment was also prepared.

| Compound | response of population firing rate to the drug [1] | localization change of drebrin [2] |
| --- | --- | --- |
| Nc1ccncc1 [4-AP, 4-Aminopyridine] | dose-dependent responses | – |
| N[C@H](CCCP(=O)(O)O)C(=O)O [D-AP5, D-2-Amino-5-phosphonopentanoic acid] | dose-dependent responses | – |
| N[C@@H](CCC(=O)O)C(=O)O [glutamate, glutamic acid] | – | drebrin was effluxed from clusters in spines |
